Experimental data as given in patent US20240190903A1, “COMPOUNDS FOR PROGRAMMABLE PROTEIN DEGRADATION AND METHODS OF USE FOR THE TREATMENT OF DISEASE” (Mayo Foundation for Medical Education and Research, priority 2021, published 2024).

What was measured:
VCaP cells = assay: MTS cell growth assay in VCaP cells; type: cell-based, human; settings: compound added to cells, different doses
Description: VCaP cells were seeded at the density of 5,000 cells per well in 96-well plate overnight. At the indicated time points, optical density (OD) of cells was measured by microtiter reader (Biotek) at 490 nanometer after incubation with MTS (Promega) for 2 hours at 37° C. in a cell incubator. For the treatment with CP-2, ICG-001 or PRI-724, cells were seeded in 96-well plate overnight followed by adding indicated compounds. OD values were measured at the indicated time points.

VCaP xenografts = VCaP xenografts in SCID mice; type: in vivo; settings: 25 mg/kg, 23 days
Description: For IHC, tissues were rehydrated, endogenous peroxidase activity was destroyed, and antigens were retrieval. Antibodies for IHC as following: anti-AR (ab108341, Abcam), anti-ERG (ab92513, Abcam), anti-Ki67 (ab15580), anti-UMPS (NOVUS, #85896), anti-RRM1 (Cell signaling technology, #8637), anti-CBP (Santa Cruz Biotechnology, sc-583), anti-LEF1 (Cell signaling technology, #2230S). For quantification, the staining score was determined by multiplying the percentage of positive cells and the intensity ranged from 1 (weak staining), 2 (median staining), and 3 (strong staining). For Ki67 quantification, cells with positive staining in the nucleus were included to calculate the percentage of Ki67 positive-staining cells.
Six-week SCID male mice were used in the study. Mice were subcutaneously injected with VCaP cells (5×10^6) mixed with Matrigel mixture (1×PBS: Matrigel (BD Biosciences)=1:1). After the xenografts reached a size of approximately 100 mm^3, mice were treated intraperitoneally with vehicle (90% corn oil (Sigma-Aldrich)+10% DMSO), ICG-001 or CBP PROTAC CP2 at 25 mg/kg for 5 days per week. For LEF1/TCF O′PROTAC administration, mice were transplanted with LuCaP23.1 PDX tumors in the approximately same volume. […] Tumor length (L) and width (W) were measured every 3 days, and tumor volumes were calculated by the formula: (L×W^2)/2. […]

[1] = system: PSGs and canonical β-Catenin target genes CCND1 and c-MYC; assay: RT-qPCR and western blot of PSGs, CCND1 and c-MYC in VCaP cells; type: cell-based, human
Description: PRI-724 is a pro-drug of C-82, a second-generation specific β—Catenin/CBP antagonist.
The total RNA was extracted from cultured cells or organoids using Trizol reagent (Thermo Fisher Scientific) according to the manufacturer's instructions. Complementary DNA was synthesized using reverse transcriptase (Promega). mRNA expression level was determined by real-time quantitative PCR (qPCR) using SYBR Green Mix (Thermo Fisher Scientific) with the realtime PCR system (Bio-Rad). Relative gene expression was normalized to the expression of house-keeping gene Actin Beta (ACTB).

[2] = physiological pH 7.4; hydrolysis of phthalimide and glutarimide moiety; cited from earlier work
293T and VCaP cell lines = assay: Fluorescent microscopy of FITC-labelled ERG O′PROTAC transfection/uptake; type: cell-based, human; settings: 293T cells
Description: FIGS. 2A-2C. ERG O′PROTACs degrade ERG protein in cultured cells. (FIG. 2A) 293T cells were transfected with FITC-labelled ERG O′PROTAC-13 (100 nM and 1,000 nM), and the transfection efficiency was monitored 48 hours post-transfection using a fluorescent microscope. Scale bar: 50 μm. (FIG. 2B) 293T cells were transfected with HA-ERG plasmid and a control or six indicated ERG O′PROTACs (100 nM) and harvested for western blot analysis 48 hours post-transfection. ERK2 was used as a loading control. (FIG. 2C) VCaP cells were transfected with a control or six indicated ERG O′PROTACs (100 nM), and cells were harvested for western blot analysis 48 hours post-transfection. Both endogenous full-length (FL) wild-type and TMPRSS2-ERG (T2-ERG) truncated ERG were detected.
FIGS. 12A-12H. Phthalic acid-based ERG O′PROTAC degrades ERG oncoprotein. […] The P values were determined using the unpaired two-tailed Student's t-test. n.s. represents not significant by comparing the values in ERG O′PROTAC-treated groups to the control OP-treated group. […] The remaining ERG protein (%) was calculated by normalizing the value of each group to that of the group without ERG OP-C-P1 treatment. (FIG. 12H) The concentration of ERG OP-C-P1 degrading 50% of ERG protein (DC50) was calculated with Prism software. […]

| Compound | VCaP cell growth (MTS) (VCaP cells) | expression of PSGs, CCND1 and c-MYC at mRNA and protein levels [1] | other results |
| --- | --- | --- | --- |
| O=C1[C@H](Cc2ccc(O)cc2)N2C(=O)CCN(C(=O)NCc3ccccc3)[C@H]2CN1Cc1cccc2ccccc12 [ICG-001] | inhibited cell growth | decreased expression | mouse body weight (VCaP xenografts): did not result in obvious deleterious effect |
| C[C@H]1[C@H]2N(C(=O)CN(C)N2C(=O)NCc2ccccc2)[C@@H](Cc2ccc(OP(=O)(O)O)cc2)C(=O)N1Cc1cccc2cccnc12 [PRI-724] | inhibition | inhibition |  |
| O=C1CCC(N2C(=O)c3ccccc3C2=O)C(=O)N1 (centres unmarked) [thalidomide] |  |  | stability [2]: poor stability |
| FITC-ERG OP-C1: Forward 5′-FITC-ACGGACCGGAAATCCGGTT-3′; reverse 5′-P1-AACCGGATTTCCGGTCCGT-3′ |  |  | uptake efficacy at 100 nM versus 1,000 nM (293T and VCaP cell lines): no difference in uptake efficacy; cellular uptake with lipofectamine 2000 versus mock transfection (293T and VCaP cell lines; 100 or 1,000 nM): greatly enhanced the cellular uptake |
